Test results taken from patent US20250145599A1, “CERTAIN CHEMICAL ENTITIES, COMPOSITIONS, AND METHODS” (Retune Pharma Inc., priority 2022, published 2025).

Biological target: IGF-1R (Homo sapiens, UniProt P08069)
Test: IGF-1R biochemical assay (ADP-Glo)
Conditions: read-out: IGF1R IC50
Experimental: The inhibitory activity against IGF-1R was measured using ADP-Glo assay. The percent (%) inhibition at each concentration of compound is calculated based on and relative to the luminescence signal in the Max and Min control wells contained within each assay plate. The Max control wells contain enzyme and substrate as 0% inhibition, and the Min control wells only contain substrate without enzyme as 100% inhibition. The concentrations and % inhibition values for tested compounds are plotted and the concentration of compound required for 50% inhibition (IC50) is determined with a four-parameter logistic dose response equation.
Table 3 provides IC50 data of representative compounds against IGF-1R using ADP-Glo assay. The IC50 data are designated within the following ranges: A: ≤0.10 μM, B: >0.10 μM to ≤1 μM, C: >1 μM to ≤20 μM

Sequence of IGF-1R (P08069 31-1367): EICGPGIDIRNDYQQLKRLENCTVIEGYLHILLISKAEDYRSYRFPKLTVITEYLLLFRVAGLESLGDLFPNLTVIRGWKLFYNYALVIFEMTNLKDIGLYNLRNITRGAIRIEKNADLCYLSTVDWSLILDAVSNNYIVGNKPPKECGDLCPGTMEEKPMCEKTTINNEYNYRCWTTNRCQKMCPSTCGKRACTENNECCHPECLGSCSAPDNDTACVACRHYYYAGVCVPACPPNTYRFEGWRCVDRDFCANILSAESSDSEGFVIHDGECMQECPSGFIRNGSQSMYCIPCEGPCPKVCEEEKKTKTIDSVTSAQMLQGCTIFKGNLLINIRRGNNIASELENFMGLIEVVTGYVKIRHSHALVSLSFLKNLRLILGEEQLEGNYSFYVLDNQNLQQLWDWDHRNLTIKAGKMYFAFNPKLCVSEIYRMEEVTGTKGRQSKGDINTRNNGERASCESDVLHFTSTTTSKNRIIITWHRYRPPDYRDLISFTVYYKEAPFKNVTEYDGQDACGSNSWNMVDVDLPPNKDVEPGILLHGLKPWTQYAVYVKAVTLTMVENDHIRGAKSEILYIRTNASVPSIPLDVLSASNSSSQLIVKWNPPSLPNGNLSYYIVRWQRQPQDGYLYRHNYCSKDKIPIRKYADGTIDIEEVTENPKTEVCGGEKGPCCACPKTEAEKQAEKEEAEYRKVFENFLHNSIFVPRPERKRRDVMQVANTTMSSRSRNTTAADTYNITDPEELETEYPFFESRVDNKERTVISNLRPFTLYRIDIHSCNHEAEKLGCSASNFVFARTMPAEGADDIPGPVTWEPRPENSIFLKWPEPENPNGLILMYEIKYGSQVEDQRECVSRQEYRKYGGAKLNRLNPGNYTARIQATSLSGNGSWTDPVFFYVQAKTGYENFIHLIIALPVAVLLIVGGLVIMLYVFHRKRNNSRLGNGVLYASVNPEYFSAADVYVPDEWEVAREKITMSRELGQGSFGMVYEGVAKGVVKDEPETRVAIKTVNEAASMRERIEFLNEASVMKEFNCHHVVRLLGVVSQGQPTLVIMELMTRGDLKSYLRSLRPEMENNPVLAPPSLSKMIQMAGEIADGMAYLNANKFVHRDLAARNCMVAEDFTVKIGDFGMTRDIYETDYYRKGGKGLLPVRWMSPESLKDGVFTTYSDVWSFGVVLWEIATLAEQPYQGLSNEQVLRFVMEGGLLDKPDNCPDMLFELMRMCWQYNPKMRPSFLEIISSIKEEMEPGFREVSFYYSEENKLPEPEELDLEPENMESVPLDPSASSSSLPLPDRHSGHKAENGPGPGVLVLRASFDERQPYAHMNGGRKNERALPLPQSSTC

IC50 [nM] | Structure (SMILES)
≤ 100 | NC(=O)c1c(-c2ccc3ccc(-c4ccccc4)nc3c2)nn(C2CC(N3CCNCC3)C2)c1N (centres unmarked) [Example C025, 5-amino-3-(2-phenylquinolin-7-yl)-1-(3-(piperazin-1-yl)cyclobutyl)-1H-pyrazole-4-carboxamide]
1000 to 20000 | NC(=O)c1c(-c2ccc3ccc(-c4ccccc4)nc3c2)nn2c1NCC(C(N)=O)C2 (centres unmarked) [Example C031]
1000 to 20000 | COC(=O)N1CCC(n2nc(-c3ccc4ccc(-c5ccccc5)nc4c3)c(C(N)=O)c2N)CC1 [Example C004, methyl 4-(5-amino-4-carbamoyl-3-(2-phenylquinolin-7-yl)-1H-pyrazol-1-yl)piperidine-1-carboxylate]
1000 to 20000 | C[C@]1(C(=O)O)C[C@H](n2nc(-c3ccc4ccc(-c5ccccc5)nc4c3)c(C(N)=O)c2N)C1 [Example C022, (1r,3r)-3-(5-amino-4-carbamoyl-3-(2-phenylquinolin-7-yl)-1H-pyrazol-1-yl)-1-methylcyclobutane-1-carboxylic acid]
1000 to 20000 | NC(=O)c1c(-c2ccc3ccc(-c4ccccc4)nc3c2)nn(C2COC2)c1N [Example C029, 5-amino-1-(oxetan-3-yl)-3-(2-phenylquinolin-7-yl)-1H-pyrazole-4-carboxamide]
≤ 100 | C[C@]1(O)C[C@@H](n2nc(-c3ccc4c(OC(F)F)cc(-c5ccccc5)nc4c3)c(C(N)=O)c2N)C1 [Example C053, 5-amino-3-(4-(difluoromethoxy)-2-phenylquinolin-7-yl)-1-((1s,3s)-3-hydroxy-3-methylcyclobutyl)-1H-pyrazole-4-carboxamide]
≤ 100 | NC(=O)c1c(-c2ccc3ccc(-c4ccccc4)nc3c2)nn(C2CC(N3CCOCC3)C2)c1N (centres unmarked) [Example C023, 5-amino-1-(3-morpholinocyclobutyl)-3-(2-phenylquinolin-7-yl)-1H-pyrazole-4-carboxamide]
100 to 1000 | NC(=O)c1c(-c2ccc3ccc(-c4ccccc4)nc3c2)nn(C2CC(F)(F)C2)c1N [Example C030, 5-amino-1-(3,3-difluorocyclobutyl)-3-(2-phenylquinolin-7-yl)-1H-pyrazole-4-carboxamide]
100 to 1000 | C[C@]1(O)C[C@H](n2nc(-c3ccc4ccc(-c5ccccc5)nc4c3)c(C(N)=O)c2N)C1 [Example C006, 5-amino-1-((1r,3r)-3-hydroxy-3-methylcyclobutyl)-3-(2-phenylquinolin-7-yl)-1H-pyrazole-4-carboxamide]
100 to 1000 | CN1CCN(C[C@H]2C[C@@H](n3nc(-c4ccc5ccc(-c6ccccc6)nc5c4)c(C(N)=O)c3N)C2)CC1 [Example C019, 5-amino-1-((1s,3s)-3-((4-methylpiperazin-1-yl)methyl)cyclobutyl)-3-(2-phenylquinolin-7-yl)-1H-pyrazole-4-carboxamide]
≤ 100 | COc1cc(-c2cccc(F)c2)nc2cc(-c3nn([C@H]4C[C@](C)(O)C4)c(N)c3C(N)=O)ccc12 [Example C049, 5-amino-3-(2-(3-fluorophenyl)-4-methoxyquinolin-7-yl)-1-((1r,3r)-3-hydroxy-3-methylcyclobutyl)-1H-pyrazole-4-carboxamide]
≤ 100 | C[C@]1(O)C[C@@H](n2nc(-c3ccc4ccc(-c5ccccc5Br)nc4c3)c(C(N)=O)c2N)C1 [Example C038, 5-amino-3-(2-(2-bromophenyl)quinolin-7-yl)-1-((ls,3s)-3-hydroxy-3-methylcyclobutyl)-1H-pyrazole-4-carboxamide]
100 to 1000 | COc1cc(-c2ccccc2)nc2cc(-c3nn([C@H]4C[C@@](C)(O)C4)c(N)c3C(N)=O)cc(F)c12 [Example C055, 5-amino-3-(5-fluoro-4-methoxy-2-phenylquinolin-7-yl)-1-((1s,3s)-3-hydroxy-3-methylcyclobutyl)-1H-pyrazole-4-carboxamide]
100 to 1000 | NC(=O)c1c(-c2ccc3ccc(-c4ccccc4)nc3c2)nn(C2CCN(CCO)CC2)c1N [Example C008, 5-amino-1-(1-(2-hydroxyethyl)piperidin-4-yl)-3-(2-phenylquinolin-7-yl)-1H-pyrazole-4-carboxamide]
≤ 100 | CN1CCN(C2CC(n3nc(-c4ccc5ccc(-c6ccccc6)nc5c4)c(C(N)=O)c3N)C2)CC1 (centres unmarked) [Example C026, 5-amino-1-(3-(4-methylpiperazin-1-yl)cyclobutyl)-3-(2-phenylquinolin-7-yl)-1H-pyrazole-4-carboxamide]
100 to 1000 | CCOC(=O)[C@]1(C)C[C@@H](n2nc(-c3ccc4ccc(-c5ccccc5)nc4c3)c(C(N)=O)c2N)C1 [Example C020, ethyl (1r,3r)-3-(5-amino-4-carbamoyl-3-(2-phenylquinolin-7-yl)-1H-pyrazol-1-yl)-1-methylcyclobutane-1-carboxylate]

IC50 [nM] | Structure (SMILES)
≤ 100 | COc1cc(-c2ccccc2F)nc2cc(-c3nn([C@H]4C[C@](C)(O)C4)c(N)c3C(N)=O)ccc12 [Example C047, 5-amino-3-(2-(2-fluorophenyl)-4-methoxyquinolin-7-yl)-1-((1r,3r)-3-hydroxy-3-methylcyclobutyl)-1H-pyrazole-4-carboxamide]
≤ 100 | COc1cc(-c2ccccc2)nc2cc(-c3nn([C@H]4C[C@](C)(O)C4)c(N)c3C(N)=O)c(F)cc12 [Example C052, 5-amino-3-(6-fluoro-4-methoxy-2-phenylquinolin-7-yl)-1-((lr,3r)-3-hydroxy-3-methylcyclobutyl)-1H-pyrazole-4-carboxamide]
1000 to 20000 | C[C@]1(O)C[C@@H](n2nc(-c3ccc4c(O)cc(-c5ccccc5)nc4c3F)c(C(N)=O)c2N)C1 [Example C042, 5-amino-3-(8-fluoro-4-hydroxy-2-phenylquinolin-7-yl)-1-((1s,3s)-3-hydroxy-3-methylcyclobutyl)-1H-pyrazole-4-carboxamide]
100 to 1000 | NC(=O)c1c(-c2ccc3ccc(-c4ccccc4)nc3c2)nn(C2CCNCC2)c1N [Example C002, 5-amino-3-(2-phenylquinolin-7-yl)-1-(piperidin-4-yl)-1H-pyrazole-4-carboxamide]
1000 to 20000 | C[C@]1(O)C[C@@H](n2nc(-c3ccc4cnc(-c5ccccc5)nc4c3)c(C(N)=O)c2N)C1 [Example C054, 5-amino-1-((1s,3s)-3-hydroxy-3-methylcyclobutyl)-3-(2-phenylquinazolin-7-yl)-1H-pyrazole-4-carboxamide]
100 to 1000 | CCOC(=O)[C@H]1C[C@@H](n2nc(-c3ccc4ccc(-c5ccccc5)nc4c3)c(C(N)=O)c2N)C1 [Example C011, ethyl (1s,3s)-3-(5-amino-4-carbamoyl-3-(2-phenylquinolin-7-yl)-1H-pyrazol-1-yl)cyclobutane-1-carboxylate]
100 to 1000 | CC(C)n1nc(-c2ccc3ccc(-c4ccccc4)nc3c2)c(C(N)=O)c1N [Example C024, 5-amino-1-isopropyl-3-(2-phenylquinolin-7-yl)-1H-pyrazole-4-carboxamide]
≤ 100 | NC(=O)c1c(-c2ccc3ccc(-c4ccccc4)nc3c2)nn([C@H]2C[C@H](CN3CCC3)C2)c1N [Example C014, 5-amino-1-((1r,3r)-3-(azetidin-1-ylmethyl)cyclobutyl)-3-(2-phenylquinolin-7-yl)-1H-pyrazole-4-carboxamide]
≤ 100 | C[C@]1(O)C[C@@H](n2nc(-c3ccc4c(OC(F)F)cc(-c5ccccc5)nc4c3F)c(C(N)=O)c2N)C1 [Example C044, 5-amino-3-(4-(difluoromethoxy)-8-fluoro-2-phenylquinolin-7-yl)-1-((1s,3s)-3-hydroxy-3-methylcyclobutyl)-1H-pyrazole-4-carboxamide]
100 to 1000 | C[C@]1(O)C[C@@H](n2nc(-c3ccc4ccc(-c5ccccn5)nc4c3F)c(C(N)=O)c2N)C1 [Example C057, 5-amino-3-(8-fluoro-2-(pyridin-2-yl)quinolin-7-yl)-1-((1s,3s)-3-hydroxy-3-methylcyclobutyl)-1H-pyrazole-4-carboxamide]
≤ 100 | CN1CCN(C[C@H]2C[C@H](n3nc(-c4ccc5ccc(-c6ccccc6)nc5c4)c(C(N)=O)c3N)C2)CC1 [Example C021, 5-amino-1-((1r,3r)-3-((4-methylpiperazin-1-yl)methyl)cyclobutyl)-3-(2-phenylquinolin-7-yl)-1H-pyrazole-4-carboxamide]
100 to 1000 | NC(=O)c1c(-c2ccc3ccc(-c4ccccc4)nc3c2)nn(C2CC(N3CCC3)C2)c1N (centres unmarked) [Example C027, 5-amino-1-(3-(azetidin-1-yl)cyclobutyl)-3-(2-phenylquinolin-7-yl)-1H-pyrazole-4-carboxamide]
1000 to 20000 | NC(=O)c1c(-c2ccc3ccc(-c4ccccc4)nc3c2)nn([C@H]2C[C@@H](O)C2)c1N [Example C009, 5-amino-1-((1s,3s)-3-hydroxycyclobutyl)-3-(2-phenylquinolin-7-yl)-1H-pyrazole-4-carboxamide]
100 to 1000 | COc1nc(-c2ccccc2)nc2cc(-c3nn([C@H]4C[C@@](C)(O)C4)c(N)c3C(N)=O)ccc12 [Example C064, 5-amino-1-((1s,3s)-3-hydroxy-3-methylcyclobutyl)-3-(4-methoxy-2-phenylquinazolin-7-yl)-1H-pyrazole-4-carboxamide]
≤ 100 | NC(=O)c1c(-c2ccc3ccc(-c4ccccc4)nc3c2)nn([C@H]2C[C@@H](CN3CCNCC3)C2)c1N [Example C015, 5-amino-3-(2-phenylquinolin-7-yl)-1-((1s,3s)-3-(piperazin-1-ylmethyl)cyclobutyl)-1H-pyrazole-4-carboxamide]
1000 to 20000 | CC(=O)N1CCC(n2nc(-c3ccc4ccc(-c5ccccc5)nc4c3)c(C(N)=O)c2N)CC1 [Example C010, 1-(1-acetylpiperidin-4-yl)-5-amino-3-(2-phenylquinolin-7-yl)-1H-pyrazole-4-carboxamide]
